From ChEMBL document CHEMBL1201862, “PubChem BioAssay data set” (2004)
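48-hour exposure; five concentrations; linearly interpolated endpoints. Here, GI50 denotes the concentration required for 50% inhibition of growth.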 Active and inactive are the calls of the source. Cut-off read from the data, not from the text of the source: active = GI50 up to about 1.1 µM and inactive = higher.

Experiments:
Experiment in all cases: NCI anticancer screen, dose series, 48 h
[1] = system: UACC-257
[2] = system: RXF 393
[3] = system: Malme-3M
[4] = system: HCT-116
[5] = system: SK-MEL-2
[6] = system: KM12
[7] = system: SW-620
[8] = system: CCRF-CEM
[9] = system: COLO 205
[10] = system: HCC 2998
[11] = system: UO-31
[12] = system: SNB-75
[13] = system: RPMI-8226
[14] = system: OVCAR-8
[15] = system: HOP-92
[16] = system: OVCAR-5
[17] = system: ACHN
[18] = system: SNB-78

| Compound | GI50 [1] | GI50 [2] | GI50 [3] | GI50 [4] | GI50 [5] | GI50 [6] | GI50 [7] | GI50 [8] | GI50 [9] | GI50 [10] | GI50 [11] | GI50 [12] | GI50 [13] | GI50 [14] | GI50 [15] | GI50 [16] | GI50 [17] | GI50 [18] |
| --- | --- | --- | --- | --- | --- | --- | --- | --- | --- | --- | --- | --- | --- | --- | --- | --- | --- | --- |
| CCc1cc(Cc2cc(Cl)c(NC(=O)C(=O)C3NC(=O)NC3=O)c(CC)c2)cc(Cl)c1NC(=O)C(=O)C1NC(=O)NC1=O (stereo unspecified) | 30.6 µM (inactive) | 22.9 µM (inactive) | > 100 µM (inactive) | 31.3 µM (inactive) | > 100 µM (inactive) | > 100 µM (inactive) | 8.47 µM (inactive) | 34.5 µM (inactive) | 57.8 µM (inactive) | 42.8 µM (inactive) | > 100 µM (inactive) | 30.9 µM (inactive) | 26.4 µM (inactive) | 21.4 µM (inactive) | > 100 µM (inactive) | > 100 µM (inactive) | 94.4 µM (inactive) | 75.7 µM (inactive) |
| CCC(Oc1ccc(OC)c2c1C(=O)CCC2)C(=O)O (stereo unspecified) | > 100 µM (inactive) | > 100 µM (inactive) | > 100 µM (inactive) |  | > 100 µM (inactive) | > 100 µM (inactive) | > 100 µM (inactive) | > 100 µM (inactive) | > 100 µM (inactive) | > 100 µM (inactive) | > 100 µM (inactive) | > 100 µM (inactive) | > 100 µM (inactive) | > 100 µM (inactive) |  | > 100 µM (inactive) | > 100 µM (inactive) | > 100 µM (inactive) |
| O=Cc1ccccc1OCCOc1cc(OCCOc2ccccc2C=O)c(OCCOc2ccccc2C=O)cc1OCCOc1ccccc1C=O | > 100 µM (inactive) | 29.6 µM (inactive) | > 100 µM (inactive) | 21.9 µM (inactive) | 44.9 µM (inactive) | > 100 µM (inactive) | 46.5 µM (inactive) | > 37.1 µM (inactive) | > 100 µM (inactive) | > 100 µM (inactive) | > 52.8 µM (inactive) | 8.07 µM (inactive) | 90.6 µM (inactive) | 47.1 µM (inactive) | 26.2 µM (inactive) | > 100 µM (inactive) | 47.3 µM (inactive) | 45.1 µM (inactive) |
| Oc1nnc(CNc2ccc(Cl)cc2Cl)c2ccccc12 | 33.4 µM (inactive) | 13.9 µM (inactive) | 23.6 µM (inactive) | 22.8 µM (inactive) | 82.8 µM (inactive) | 39.3 µM (inactive) | 37.1 µM (inactive) | > 100 µM (inactive) | 45.8 µM (inactive) | 20 µM (inactive) | 17.3 µM (inactive) | 23.6 µM (inactive) | 58.2 µM (inactive) |  | 32.7 µM (inactive) | 24.4 µM (inactive) | 22.8 µM (inactive) | 62.7 µM (inactive) |
| Cc1nc(N)nc(CCC(=O)Nc2cccc(C(F)(F)F)c2)c1-c1ccc(Cl)cc1 | > 100 µM (inactive) | > 100 µM (inactive) | > 100 µM (inactive) | > 100 µM (inactive) | > 100 µM (inactive) | > 100 µM (inactive) | > 100 µM (inactive) | > 100 µM (inactive) | > 100 µM (inactive) | > 100 µM (inactive) | > 100 µM (inactive) | > 100 µM (inactive) | > 100 µM (inactive) | > 100 µM (inactive) | > 100 µM (inactive) | > 100 µM (inactive) | > 100 µM (inactive) | > 100 µM (inactive) |
| COc1ccc(/C=C/C(=O)C(C)C)cc1 | 63.7 µM (inactive) |  | 42 µM (inactive) | 49.8 µM (inactive) | 27.7 µM (inactive) | 33.6 µM (inactive) | 33 µM (inactive) | 35.9 µM (inactive) | 40 µM (inactive) | > 100 µM (inactive) | 80.2 µM (inactive) | 40.6 µM (inactive) |  | 34.8 µM (inactive) | 54.8 µM (inactive) | > 100 µM (inactive) | 50.9 µM (inactive) | 14.9 µM (inactive) |
| O=S1(=O)COc2ccccc2-c2ncncc21 | > 100 µM (inactive) | 1.02 µM (active) | > 100 µM (inactive) | > 100 µM (inactive) |  | > 100 µM (inactive) | > 100 µM (inactive) | > 100 µM (inactive) | > 100 µM (inactive) | > 100 µM (inactive) | > 100 µM (inactive) | > 100 µM (inactive) | > 100 µM (inactive) | > 100 µM (inactive) | > 100 µM (inactive) | > 100 µM (inactive) | > 100 µM (inactive) | > 100 µM (inactive) |
| CC(C)N1CCC2(CC1)NNc1ncccc1-n1cccc12 | > 100 µM (inactive) |  | > 100 µM (inactive) | > 100 µM (inactive) | > 100 µM (inactive) | > 100 µM (inactive) | > 100 µM (inactive) | > 100 µM (inactive) | > 100 µM (inactive) | > 100 µM (inactive) | > 100 µM (inactive) | > 100 µM (inactive) | > 100 µM (inactive) | > 100 µM (inactive) |  | > 100 µM (inactive) | > 100 µM (inactive) | > 100 µM (inactive) |
